Earlier results as cited in patent US20160158308A1 (priority 2013, published 2016).
Read-outs that look alike come from different tables or passages of the source.

Columns and labels:
[1] = test system: Mycobacterium tuberculosis; settings: NAC at 10 millimolar
[2] = rat liver, CO-60, water control = 0% removal

| Structure (SMILES) | M. tuberculosis CFU/ml [1] | removal of the toxin [2] [%] | removal of the toxin ([2]; listed as Intravenous glutathione) [%] |
| --- | --- | --- | --- |
| CC(=O)N[C@@H](CS)C(=O)O [NAC, N-acetyl cysteine] | 8,000 CFU/ml | – | – |
| N[C@@H](CCC(=O)N[C@@H](CS)C(=O)NCC(=O)O)C(=O)O [Plain glutathione, glutathione] | – | 0 | 64 |
